One test concerns the target sigma-2 receptor (Homo sapiens, UniProt Q5BJF2). The test can be described thus: sigma-2 receptor binding affinity (Ki). The settings on record: for Ki: read-out: Ki (nM) Sigma-2.
Another test addresses sigma-1 receptor (Homo sapiens, UniProt Q99720). The test can be described thus: sigma-1 receptor binding affinity (Ki). The settings on record: for Ki: read-out: Ki (nM) Sigma-1.

pKi: −log10 of the molar value. Where two headings read alike, the source gives them in different places.

Chain of sigma-1 receptor (Q99720 whole entry, species assumed): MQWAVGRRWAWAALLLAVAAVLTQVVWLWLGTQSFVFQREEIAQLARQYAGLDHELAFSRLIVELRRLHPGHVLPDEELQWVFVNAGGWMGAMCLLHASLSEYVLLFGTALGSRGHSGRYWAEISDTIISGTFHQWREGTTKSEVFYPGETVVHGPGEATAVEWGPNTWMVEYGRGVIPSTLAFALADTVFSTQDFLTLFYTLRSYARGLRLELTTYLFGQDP
Chain of sigma-2 receptor (Q5BJF2 whole entry, species assumed): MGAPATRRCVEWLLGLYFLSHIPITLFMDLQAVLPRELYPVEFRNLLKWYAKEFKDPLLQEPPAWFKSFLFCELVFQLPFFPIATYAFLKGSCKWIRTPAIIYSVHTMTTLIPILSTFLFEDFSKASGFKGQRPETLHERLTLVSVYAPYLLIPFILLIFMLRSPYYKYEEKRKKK

As a reminder, the Ki is a measure of affinity in units of concentration, obtained from inhibition or displacement. As for `CCCn1nc(C(=O)N2CCCCC2)c2c1CCC(NCCCN1CCCC1=O)C2` (stereo not shown) [compound 54120], the Ki on sigma-2 receptor came out at 673 nM.
What is called pKi is the Ki on a negative log10 scale, so that one unit is a factor of ten. For the molecule `CCCn1nc(C(=O)N(C)C)c2c1CCC(NCc1ccc(F)cc1)C2` (stereo not shown) [compound 54121, 5-((4-Fluorobenzyl)amino)-N,N-dimethyl-1-propyl-4,5,6,7-tetrahydro-1H-indazole-3-carboxamide], on sigma-1 receptor, the “activity against sigma-1 (in words)” value was “moderate activity”, the “selectivity sigma-1 versus sigma-2 (in words)” value is “slightly more selectivity for the sigma-1 receptor” and the Ki was determined as 1580 nM. Further, at sigma-1 receptor (read-out: Ki sigma-1), the pKi is 5.82. Besides, on sigma-2 receptor, the “activity against sigma-2 (in words)” value was “moderate activity” and the Ki turned out to be 2190 nM. Moreover, at sigma-2 receptor (read-out: Ki sigma-2), the pKi was 5.68.
In the case of `CCCn1nc(C(=O)N2CCCCC2)c2c1CCC(N1CCC(N(C)C)CC1)C2` (stereo not shown) [compound 196331, (5-(4-(dimethylamino)piperidin-1-yl)-1-propyl-4,5,6,7-tetrahydro-1H-indazol-3-yl)(piperidin-1-yl)methanone], the Ki at sigma-1 receptor and at sigma-2 receptor was over 10000 nM each time.
On to `CCCn1nc(C(=O)N2CCCCC2)c2c1CCC(N1CCN(C)CC1)C2` (stereo not shown) [compound 196337, (5-(4-methylpiperazin-1-yl)-1-propyl-4,5,6,7-tetrahydro-1H-indazol-3-yl)(piperidin-1-yl)methanone], for which, at sigma-1 receptor, the Ki is 192 nM. Besides, on sigma-2 receptor, the “activity against sigma-2 (in words)” value is “great overall potency”, the “selectivity for sigma-2 over sigma-1” value is “about 5 fold” and the Ki amounted to 34 nM.
Regarding `CCCn1nc(C(=O)N2CCCCC2)c2c1CCC(N1CCc3ccccc3C1)C2` (stereo not shown) [compound 196338, (5-(3,4-dihydroisoquinolin-2(1H)-yl)-1-propyl-4,5,6,7-tetrahydro-1H-indazol-3-yl)(piperidin-1-yl)methanone], on sigma-2 receptor, the “activity against sigma-2 (in words)” value is “retained sigma-2 activity”, the “selectivity of sigma-2 ligands against sigma-1 (in words)” value (“selectivity of sigma-2 ligands” for short) is recorded as “excellent selectivity” and the Ki turned out to be 31 nM.
In the case of `CCCn1nc(C(=O)N2CCCCC2)c2c1CCC(N(C)Cc1ccc(F)cc1)C2` (stereo not shown) [compound 196339, (5-((4-fluorobenzyl)(methyl)amino)-1-propyl-4,5,6,7-tetrahydro-1H-indazol-3-yl)(piperidin-1-yl)methanone], on sigma-2 receptor, the “selectivity of sigma-2 ligands” value is on record as “excellent selectivity” and the Ki is 19 nM.
Regarding `CCCn1nc(C(=O)N2CCCCC2)c2c1CCC(NCCc1ccncc1)C2` (stereo not shown) [compound 200390, Piperidin-1-yl(1-propyl-5-((2-(pyridin-4-yl)ethyl)amino)-4,5,6,7-tetrahydro-1H-indazol-3-yl)methanone], the “activity against sigma-1 (in words)” value on sigma-1 receptor is “eliminated the activity”. Besides, at sigma-2 receptor, the “activity against sigma-2 (in words)” value is on record as “eliminated the activity”.
Regarding `CCCn1nc(C(=O)N(C)C)c2c1CCC(OCc1ccc(F)cc1)C2` (stereo not shown) [compound 200622, 5-((4-fluorobenzyl)oxy)-N,N-dimethyl-1-propyl-4,5,6,7-tetrahydro-1H-indazole-3-carboxamide], on sigma-1 receptor, the “activity against sigma-1 (in words)” value is reported as “completely lost” and the Ki is over 10000 nM. At sigma-2 receptor, the “activity against sigma-2 (in words)” value is “completely lost” and the Ki is over 10000 nM.
For `CCCn1nc(C(=O)N(C)C)c2c1CCC(SCc1ccc(F)cc1)C2` (stereo not shown) [compound 200624, 5-((4-fluorobenzyl)thio)-N,N-dimethyl-1-propyl-4,5,6,7-tetrahydro-1H-indazole-3-carboxamide], at sigma-1 receptor, the “activity against sigma-1 (in words)” value is “completely lost” and the Ki was over 10000 nM. Moreover, on sigma-2 receptor, the “activity against sigma-2 (in words)” value was “completely lost” and the Ki was over 10000 nM.
Consider `CCCn1nc(C(=O)N(C)C)c2c1CCC(NS(=O)(=O)c1ccc(F)cc1)C2` (stereo not shown) [compound 200629, 5-((4-fluorophenyl)sulfonamido)-N,N-dimethyl-1-propyl-4,5,6,7-tetrahydro-1H-indazole-3-carboxamide], for which, at sigma-1 receptor, the “activity against sigma-1 (in words)” value is “did not restore the activity” and the Ki was over 10000 nM. On sigma-2 receptor, the “activity against sigma-2 (in words)” value is “did not restore the activity” and the Ki is over 10000 nM.
`CCCn1nc(C(=O)N2CCCCC2)c2c1CCC(Nc1ccc(N3CCCCC3)cc1)C2` (stereo not shown) [compound 200637, Piperidin-1-yl(5-((4-(piperidin-1-yl)phenyl)amino)-1-propyl-4,5,6,7-tetrahydro-1H-indazol-3-yl)methanone]: the Ki on sigma-2 receptor was 787 nM.
On to `CCCn1nc(C(=O)N2CCCCC2)c2c1CCC(N1CCC(c3ccncc3)CC1)C2` (stereo not shown) [compound 200639, Piperidin-1-yl(1-propyl-5-(4-(pyridin-4-yl)piperidin-1-yl)-4,5,6,7-tetrahydro-1H-indazol-3-yl)methanone], for which, at sigma-2 receptor, the “selectivity of sigma-2 ligands” value is “excellent selectivity” and the Ki was 16 nM.
With `CCCn1nc(C(=O)N2CCCCC2)c2c1CCC(NCCN1CCCCC1)C2` (stereo not shown) [compound 200640, Piperidin-1-yl(5-((2-(piperidin-1-yl)ethyl)amino)-1-propyl-4,5,6,7-tetrahydro-1H-indazol-3-yl)methanone], the Ki at sigma-2 receptor came out at 434 nM.
Take `CCCn1nc(C(=O)N2CCCCC2)c2c1CCC(N1CCN(Cc3ccc(C#N)cc3)CC1)C2` (stereo not shown) [compound 200641, 4-((4-(3-(Piperidine-1-carbonyl)-1-propyl-4,5,6,7-tetrahydro-1H-indazol-5-yl)piperazin-1-yl)methyl)benzonitrile]: the Ki on sigma-2 receptor worked out at 1100 nM.
On to `CCCn1nc(C(=O)N2CCCCC2)c2c1CCC(NCC1CCOCC1)C2` (stereo not shown) [compound 200642, Piperidin-1-yl(1-propyl-5-(((tetrahydro-2H-pyran-4-yl)methyl)amino)-4,5,6,7-tetrahydro-1H-indazol-3-yl)methanone], for which, at sigma-2 receptor, the Ki is 710 nM.
For the molecule `CCCn1nc(C(=O)N2CCCCC2)c2c1CCC(NCCc1ccc(O)cc1)C2` (stereo not shown) [compound 200643, (5-((4-Hydroxyphenethyl)amino)-1-propyl-4,5,6,7-tetrahydro-1H-indazol-3-yl)(piperidin-1-yl)methanone], the Ki at sigma-1 receptor was over 10000 nM. In addition, on sigma-2 receptor, the “selectivity of sigma-2 ligands” value is on record as “excellent selectivity” and the inhibition constant Ki was found to be 273 nM. In addition, the “more potent against sigma-2” value at sigma-2 receptor (relative to earlier dimethyl amide analogs) is “about 8 fold”.
Regarding `CCCn1nc(C(=O)N2CCCCC2)c2c1CCC(NCCc1cccc(O)c1)C2` (stereo not shown) [compound 200646, (5-((3-Hydroxyphenethyl)amino)-1-propyl-4,5,6,7-tetrahydro-1H-indazol-3-yl)(piperidin-1-yl)methanone], the values for the Ki at sigma-1 receptor and at sigma-2 receptor were 872 nM and 612 nM, respectively.
For the molecule `CCCn1nc(C(=O)N2CCCCC2)c2c1CCC(NCc1ccc(N3CCCCC3)cc1)C2` (stereo not shown) [compound 200647, Piperidin-1-yl(5-((4-(piperidin-1-yl)benzyl)amino)-1-propyl-4,5,6,7-tetrahydro-1H-indazol-3-yl)methanone], the Ki on sigma-2 receptor is 169 nM.
Still for that read-out and setting: under `CCCn1nc(C(=O)N2CCCCC2)c2c1CCC(NCc1ccc(S(N)(=O)=O)cc1)C2` (stereo not shown) [compound 200652, 4-(((3-(Piperidine-1-carbonyl)-1-propyl-4,5,6,7-tetrahydro-1H-indazol-5-yl)amino)methyl)benzenesulfonamide] stands 439 nM.
With `CCCn1nc(C(=O)N2CCCCC2)c2c1CCC(Nc1ccc(Oc3ccccc3)cc1)C2` (stereo not shown) [compound 200702], the Ki is over 10000 nM on sigma-1 receptor and 310 nM at sigma-2 receptor.
In the same order, the values of `CCCn1nc(C(=O)N2CCCCC2)c2c1CCC(N1CCN(c3ccc([N+](=O)[O-])cc3)CC1)C2` (stereo not shown) [compound 200709, (5-(4-(4-Nitrophenyl)piperazin-1-yl)-1-propyl-4,5,6,7-tetrahydro-1H-indazol-3-yl)(piperidin-1-yl)methanone] are 1590 nM and 526 nM.
Take `CCCn1nc(C(=O)N2CCCCC2)c2c1CCC(NCCCNC)C2` (stereo not shown) [compound 200820, (5-((3-(Methylamino)propyl)amino)-1-propyl-4,5,6,7-tetrahydro-1H-indazol-3-yl)(piperidin-1-yl)methanone]: the Ki at sigma-2 receptor came out at 1990 nM.
With `CCCn1nc(C(=O)N2CCCCC2)c2c1CCC(NCCNC(=N)N)C2` (stereo not shown) [compound 200829, 2-(2-((3-(Piperidine-1-carbonyl)-1-propyl-4,5,6,7-tetrahydro-1H-indazol-5-yl)amino)ethyl)guanidine], at sigma-2 receptor, the “activity against sigma-2 (in words)” value was “decreased activity” and the Ki was 2160 nM.
As to `CCCn1nc(C(=O)N(C)C)c2c1CCC(NCc1ccc(OC)cc1OC)C2` (stereo not shown) [compound 200874, 5-((2,4-dimethoxybenzyl)amino)-N,N-dimethyl-1-propyl-4,5,6,7-tetrahydro-1H-indazole-3-carboxamide], at sigma-2 receptor, the Ki was 839 nM.
`CCCn1nc(C(=O)N(C)C)c2c1CCC(NCc1ccc(Cl)cc1)C2` (stereo not shown) [compound 200875, 5-((4-chlorobenzyl)amino)-N,N-dimethyl-1-propyl-4,5,6,7-tetrahydro-1H-indazole-3-carboxamide]: the “activity against sigma-1 (in words)” value on sigma-1 receptor was “complete loss of activity”. On sigma-2 receptor, the “activity against sigma-2 (in words)” value is on record as “moderate inhibition” and the Ki amounted to 1020 nM.
For `CCCn1nc(C(=O)N(C)C)c2c1CCC(NCCc1ccc3c(c1)OCO3)C2` (stereo not shown) [compound 200876, 5-((2-(benzo[d][1,3]dioxol-5-yl)ethyl)amino)-N,N-dimethyl-1-propyl-4,5,6,7-tetrahydro-1H-indazole-3-carboxamide], the inhibition constant (Ki) was over 10000 nM at sigma-1 receptor and 430 nM on sigma-2 receptor.
For the molecule `CCCn1nc(C(=O)N(C)C)c2c1CCC(NCCc1ccc(C(F)(F)F)cc1)C2` (stereo not shown) [compound 200878, N,N-dimethyl-1-propyl-5-((4-(trifluoromethyl)phenethyl)amino)-4,5,6,7-tetrahydro-1H-indazole-3-carboxamide], the values for the Ki at sigma-1 receptor and on sigma-2 receptor were 1400 nM and 595 nM, respectively.
Consider `O=C(c1c2c(nn1-c1ccc(F)cc1)CCC(NCc1ccc(F)cc1)C2)N1CCCCC1` (stereo not shown) [compound 201117, (5-((4-fluorobenzyl)amino)-2-(4-fluorophenyl)-4,5,6,7-tetrahydro-2H-indazol-3-yl)(piperidin-1-yl)methanone], for which, on sigma-1 receptor, the “selectivity of sigma-1 ligand against sigma-2” value is “over 500 ×” and the Ki was determined as 17 nM.

The values are drawn from patent publication US12692236B2, “Small molecule modulators of sigma-1 and sigma-2 receptors and uses thereof” (Northwestern University, priority 2018, dated 2026).
